Assay [1] concerns the target human PDHK1 (hPDHK1) (Homo sapiens (Human), UniProt Q15118). Put plainly: Inhibitory action of PDHK1 activity in vitro (residual PDH activity after PDHK reaction). Format: biochemical. To be noted: for IC50: PDH/hPDHK1 complex solution, PDHK reaction at room temperature for 45 min, NADH absorbance at 340 nm, read-out: hPDK1 IC50; for inhibition at 0.003 µM: at 3 nmol/L, shown when IC50 value could not be calculated, read-out: hPDHK1 inhibitory rate at the lowest concentration of the test compound. The gist of the method:
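N-FLAG hPDHK1 (E. coli-expressed, 0.5 μg/mL) precomplexed overnight at 4 °C with porcine heart PDH (0.025 U/mL), then reacted 45 min at room temperature with compound and ATP (0.353 μmol/L as added) in MOPS pH 7.0 buffer. Residual PDH activity after 90 min with pyruvate, CoA, NAD, TPP read as NADH at 340 nm.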

Assay [2] has as its target human PDHK2 (hPDHK2) (Homo sapiens (Human), UniProt Q15119). Put plainly: Inhibitory action of PDHK2 activity in vitro (residual PDH activity after PDHK reaction). Format: biochemical. To be noted: for IC50: PDH/hPDHK2 complex solution, PDHK reaction at room temperature for 45 min, NADH absorbance at 340 nm, read-out: kPDK2 IC50; for hPDHK2 inhibitory rate at the lowest concentration of the test compound: lowest concentration of the test compound in the assay (<3 nmol/L), shown when IC50 value could not be calculated. The gist of the method: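 Indirect assay: FLAG-tagged hPDHK2 (0.5 μg/mL) precomplexed overnight at 4 °C with PDH (0.025 U/mL), then kinase reaction with compound and ATP 45 min at room temperature, pH 7.0 MOPS buffer. Residual PDH activity measured after 90 min with pyruvate, CoA, NAD, TPP as NADH absorbance at 340 nm, corrected for compound effect on PDH-only blank.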

human PDHK1 (hPDHK1), sequence (Q15118 29-436): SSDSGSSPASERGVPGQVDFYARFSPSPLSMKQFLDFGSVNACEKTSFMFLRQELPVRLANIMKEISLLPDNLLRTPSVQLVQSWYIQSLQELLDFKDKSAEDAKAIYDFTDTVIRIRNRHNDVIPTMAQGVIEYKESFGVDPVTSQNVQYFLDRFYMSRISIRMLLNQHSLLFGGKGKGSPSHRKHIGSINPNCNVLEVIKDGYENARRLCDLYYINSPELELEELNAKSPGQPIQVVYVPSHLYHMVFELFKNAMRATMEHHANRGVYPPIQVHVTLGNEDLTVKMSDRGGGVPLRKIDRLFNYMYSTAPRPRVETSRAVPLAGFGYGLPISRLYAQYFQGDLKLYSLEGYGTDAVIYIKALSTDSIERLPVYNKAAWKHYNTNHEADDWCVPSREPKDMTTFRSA

As to `C[C@H]1CN(C(=O)[C@H]2NCCc3ccccc32)Cc2onc([C@@](C)(O)C(F)(F)F)c21` [Example 105], the IC50 amounted to 9 nM in assay [1] and 8 nM in assay [2].
Consider `C[C@H]1CN(C(=O)c2ccc(C#N)c(-n3cccn3)c2)Cc2cnc([C@@](C)(O)C(F)(F)F)n21` [Example 74], for which the figures for the IC50 in assay [1] and in assay [2] were 6 nM and 11 nM, respectively.
Take `C[C@H]1CN(C(=O)c2cccc(-c3ccccn3)c2)Cc2cnc([C@@](C)(O)C(F)(F)F)n21` [Example 49]: the IC50 in assay [1] and in assay [2] was 3 nM in each case.
As for `C[C@H]1CN(C(=O)c2cc(C3CC3)nn2C)Cc2nnc([C@@](C)(O)C(F)(F)F)n21` [Example 123], the IC50 in assay [1] was determined as 6 nM; in assay [2], 12 nM.
`C[C@H]1CN(C(=O)c2nnc(C3CC3)o2)Cc2onc([C@@](C)(O)C(F)(F)F)c21` [Example 115]: the IC50 came to 6 nM in assay [1] and 8 nM in assay [2].
For `C[C@H]1CN(C(=O)C2CCC(n3cc(Cl)cn3)CC2)Cc2cnc([C@@](C)(O)C(F)(F)F)n21` (stereo partly drawn) [Example 89], in that order: 20 nM and 19 nM.
As for `C[C@H]1CN(C(=O)c2nn(C)c3cc(F)cc(F)c23)Cc2cnc([C@@](C)(O)C(F)(F)F)n21` [Example 7], the IC50 in assay [1] was found to be 8 nM; in assay [2], 10 nM.
For the compound `C[C@H]1CN(C(=O)c2cc(-c3ccc(C#N)cc3)ncc2F)Cc2cnc([C@@](C)(O)C(F)(F)F)n21` [Example 68, 4-(5-fluoro-4-((S)-5-methyl-3-((R)-1,1,1-trifluoro-2-hydroxypropan-2-yl)-5,6,7,8-tetrahydroimidazo[1,5-a]pyrazine-7-carbonyl)pyridin-2-yl)benzonitrile], the half-inhibitory concentration (IC50) in assay [1] stood at 4 nM; in assay [2], 6 nM.
For `C[C@H]1CN(C(=O)c2cc(C#N)nn2C2CC2)Cc2onc([C@@](C)(O)C(F)(F)F)c21` [Example 114], in that order: 5 nM and 7 nM.
Take `C[C@H]1CN(C(=O)c2cnn(-c3ccc(F)cc3)c2C(F)(F)F)Cc2cnc([C@@](C)(O)C(F)(F)F)n21` [Example 17]: the results for the IC50 in assay [1] and in assay [2] were 8 nM and 7 nM, respectively.
On to `C[C@H]1CN(C(=O)c2ccnc(-c3ccc(F)cc3)c2F)Cc2cnc([C@@](C)(O)C(F)(F)F)n21` [Example 87], for which, in assay [1], the half-inhibitory concentration (IC50) was under 3 nM and the inhibition at 0.003 µM is 66%. In assay [2], the IC50 is under 3 nM and the “hPDHK2 inhibitory rate at the lowest concentration of the test compound” value (“hPDHK2 inhibitory rate” below) is on record as 53%.
Regarding `C[C@H]1CN(C(=O)c2cc(-c3ccccc3)nn2C)Cc2nnc([C@@](C)(O)C(F)(F)F)n21` [Example 122, ((S)-5-methyl-3-((R)-1,1,1-trifluoro-2-hydroxypropan-2-yl)-5,6-dihydro-[1,2,4]triazolo[4,3-a]pyrazin-7(8H)-yl)(1-methyl-3-phenyl-1H-pyrazol-5-yl)methanone], the IC50 in assay [1] was 5 nM; in assay [2] it was 7 nM.
The matching figures for `C[C@H]1CN(C(=O)c2ccc(F)c(-c3ccc(F)cn3)c2)Cc2cnc([C@@](C)(O)C(F)(F)F)n21` [Example 70]: 3 nM and 6 nM.
Turning to `C[C@H]1CN(C(=O)c2c(C#N)c(C3CC3)nn2C)Cc2cnc([C@@](C)(O)C(F)(F)F)n21` [Example 19], the IC50 in assay [1] turned out to be 5 nM. In assay [2], the IC50 is under 3 nM and the “hPDHK2 inhibitory rate” value was 67%.
For the compound `C[C@H]1CN(C(=O)c2cc(-c3ccc(F)cc3)ncc2F)Cc2cnc([C@@](C)(O)C(F)(F)F)n21` [Example 86], in assay [1], the IC50 is under 3 nM and the inhibition at 0.003 µM is 52%. Also, the half-maximal inhibitory concentration (IC50) in assay [2] is 4 nM.
Regarding `C[C@H]1CN(C(=O)c2ccc(C3(O)CCC3)cc2)Cc2cnc([C@@](C)(O)C(F)(F)F)n21` [Example 51], the IC50 in assay [1] is 4 nM; in assay [2], 6 nM.
As to `C[C@H]1CN(C(=O)c2nn(C)c3cc(C#N)ccc23)Cc2cnc([C@@](C)(O)C(F)(F)F)n21` [Example 5, 1-methyl-3-((S)-5-methyl-3-((R)-1,1,1-trifluoro-2-hydroxypropan-2-yl)-5,6,7,8-tetrahydroimidazo[1,5-a]pyrazine-7-carbonyl)-1H-indazole-6-carbonitrile], the IC50 in assay [1] is under 3 nM; in assay [2], 5 nM. In addition, the inhibition at 0.003 µM in assay [1] is 55%.
Take `C[C@H]1CN(C(=O)c2ccnc(-c3ccc(C#N)cc3)c2F)Cc2cnc([C@@](C)(O)C(F)(F)F)n21` [Example 78]: the 50% inhibitory concentration (IC50) in assay [1] is 4 nM; in assay [2] it was 7 nM.
On to `C[C@H]1CN(C(=O)c2cc(C3CC3)nn2C2CC2)Cc2cnc([C@@](C)(O)C(F)(F)F)n21` [Example 29], for which the IC50 in assay [1] and in assay [2] was 7 nM each time.
Turning to `Cc1cc(-c2ccc(F)cc2C#N)ncc1C(=O)N1Cc2cnc([C@@](C)(O)C(F)(F)F)n2[C@@H](C)C1` [Example 59], the IC50 in assay [1] was found to be 4 nM; in assay [2], 3 nM.
For the compound `C[C@H]1CN(C(=O)c2ccc(=O)n(C3CC3)c2)Cc2cnc([C@@](C)(O)C(F)(F)F)n21` [Example 24], the concentration for half-maximal inhibition (IC50) in assay [1] was 42 nM; in assay [2] it was 36 nM.
Regarding `C[C@H]1CN(C(=O)c2ccc(F)c(-c3ncc(F)cc3C#N)c2)Cc2cnc([C@@](C)(O)C(F)(F)F)n21` [Example 69], the values for the 50% inhibitory concentration (IC50) in assay [1] and in assay [2] were 5 nM and 8 nM, respectively.
As for `C[C@H]1CN(C(=O)c2ccc(N3CCN(C)CC3)cc2)Cc2cnc([C@@](C)(O)C(F)(F)F)n21` [Example 93], the IC50 in assay [1] is 8 nM; in assay [2] it was 11 nM.
For `C[C@H]1CN(C(=O)c2cnc(C3CC3)nc2)Cc2cnc([C@@](C)(O)C(F)(F)F)n21` [Example 94], in that order: 40 nM and 24 nM.
With `C[C@H]1CN(C(=O)c2ccc(C3(O)CCCC3)cc2)Cc2cnc([C@@](C)(O)C(F)(F)F)n21` [Example 52], the IC50 in assay [1] was found to be 4 nM; in assay [2], 6 nM.
For `C[C@H]1CN(C(=O)c2cc(C3CC3)nn2CC(F)(F)F)Cc2cnc([C@@](C)(O)C(F)(F)F)n21` [Example 36], in that order: 4 nM and 5 nM.
On to `C[C@H]1CN(C(=O)c2cc(C3CC3)n(C)n2)Cc2onc([C@@](C)(O)C(F)(F)F)c21` [Example 113], for which the IC50 in assay [1] is 4 nM; in assay [2], 5 nM.
For `C[C@H]1CN(C(=O)c2ccc(F)c(-c3ccnn3C)c2)Cc2cnc([C@@](C)(O)C(F)(F)F)n21` [Example 64], in that order: 5 nM and 7 nM.
For `C[C@H]1CN(C(=O)c2cccc(-c3ccc(C#N)cn3)c2)Cc2cnc([C@@](C)(O)C(F)(F)F)n21` [Example 79], in that order: 5 nM and 8 nM.
For `COc1ccc(-c2cc(C(=O)N3Cc4cnc([C@@](C)(O)C(F)(F)F)n4[C@@H](C)C3)no2)cc1` [Example 25], in that order: 7 nM and 14 nM.
In the case of `Cc1c(-c2ccc(C#N)cc2)nn(C)c1C(=O)N1Cc2cnc([C@@](C)(O)C(F)(F)F)n2[C@@H](C)C1` [Example 76], the IC50 in assay [1] is 6 nM; in assay [2] it was 9 nM.
The matching figures for `C[C@H]1CN(C(=O)c2cc(-c3ccccc3)nn2C)Cc2cnc([C@@](C)(O)C(F)(F)F)n21` [Example 15]: 3 nM and 5 nM.
For `C[C@H]1CN(C(=O)c2ccc(F)c(-c3ccncc3F)c2)Cc2cnc([C@@](C)(O)C(F)(F)F)n21` [Example 82], in that order: 5 nM and 7 nM.
For `C[C@H]1CN(C(=O)C(C)(C)c2ccc(-c3nn[nH]n3)cc2)Cc2onc([C@@](C)(O)C(F)(F)F)c21` [Example 120], in that order: 5 nM and 9 nM.
As to `C[C@H]1CN(C(=O)c2[nH]nc(C3CC3)c2Cl)Cc2onc([C@@](C)(O)C(F)(F)F)c21` [Example 112], the IC50 turned out to be 3 nM in assay [1] and 5 nM in assay [2].
The matching figures for `C[C@H]1CN(C(=O)c2cc(-c3ccc(F)cc3)n[nH]2)Cc2cnc([C@@](C)(O)C(F)(F)F)n21` [Example 34]: 10 nM and 13 nM.
The matching figures for `C[C@H]1CN(C(=O)c2ccc(F)c(-c3cncc(F)c3)c2)Cc2cnc([C@@](C)(O)C(F)(F)F)n21` [Example 83]: 5 nM and 11 nM.
For `C[C@H]1CN(C(=O)c2n[nH]c3ccc(F)cc23)Cc2onc([C@@](C)(O)C(F)(F)F)c21` [Example 104], in that order: 4 nM and 6 nM.
With `C[C@H]1CN(C(=O)C2CCC(n3cccn3)CC2)Cc2cnc([C@@](C)(O)C(F)(F)F)n21` (stereo partly drawn) [Example 60], the figures for the IC50 in assay [1] and in assay [2] were 14 nM and 9 nM, respectively.
With `C[C@H]1CN(C(=O)c2ccnc(-c3ccc(F)cc3)c2)Cc2cnc([C@@](C)(O)C(F)(F)F)n21` [Example 48, (2-(4-fluorophenyl)pyridin-4-yl)((S)-5-methyl-3-((R)-1,1,1-trifluoro-2-hydroxypropan-2-yl)-5,6-dihydroimidazo[1,5-a]pyrazin-7(8H)-yl)methanone], in assay [1], the IC50 was under 3 nM and the inhibition at 0.003 µM was 88%. For the same compound, in assay [2], the IC50 was under 3 nM and the “hPDHK2 inhibitory rate” value is listed as 81%.

The term IC50 denotes the concentration that gives 50% inhibition.

These data come from patent US10800784B2, “Nitrogen-containing heterocyclic amide compound and pharmaceutical use thereof” (Japan Tobacco Inc., priority 2018, dated 2020).
